Measurements: patent publication US9695155B2, “Herbicidal substituted pyrimidinyloxy benzene compounds” (E. I. DU PONT DE NEMOURS AND COMPANY, priority 2013, dated 2017)

How the values were obtained:
[1] = tested on: morningglory; test: Test A postemergence; format: in vivo, Ipomoea spp.
In short: (§1)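 Pre- and postemergence greenhouse screen. Soil: loam + sand. Spray carrier: solvent mixture, non-phytotoxic, with surfactant. Post timing at 1–2 leaves, height 2–10 cm. Readout: visual injury on a 0–100 scale roughly 10 days after application, untreated plants as reference.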

[2] = tested on: chickweed; test: Test C postemergence; format: in vivo, Stellaria media; settings: for Plant response rating, Chickweed: Postemergence
In short: (§2)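 Visual ratings on a 0–100 scale (100 = complete control) were made versus untreated controls after 13–15 greenhouse days. Chemicals in a surfactant-containing non-phytotoxic solvent were applied either preemergence to seeds in loam–sand soil or postemergence to 1- to 4-leaf plants 2–18 cm tall.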

[3] = tested on: velvetleaf; test: Test A preemergence; format: in vivo, Abutilon theophrasti; settings: for Velvetleaf plant response rating: 0 to 100 scale, 0 no effect, 100 complete control, approx. 10 days
In short: as §1

[4] = tested on: johnsongrass; test: Test C postemergence; format: in vivo, Sorghum halepense; settings: for Plant response rating, Johnsongrass: Postemergence
In short: as §2

[5] = tested on: pigweed; test: Test A postemergence; format: in vivo, Amaranthus retroflexus
In short: as §1

[6] = tested on: corn; test: Test A postemergence; format: in vivo, Zea mays
In short: as §1

[7] = tested on: corn; test: Test C postemergence; format: in vivo, Zea mays; settings: for Plant response rating, Corn: Postemergence
In short: as §2

[8] = tested on: giant foxtail; test: Test A postemergence; format: in vivo, Setaria faberii
In short: as §1

[9] = tested on: large (Lg) crabgrass; test: Test A postemergence; format: in vivo, Digitaria sanguinalis
In short: as §1

[10] = tested on: pigweed; test: Test A preemergence; format: in vivo, Amaranthus retroflexus; settings: for Pigweed plant response rating: 0 to 100 scale, 0 no effect, 100 complete control, approx. 10 days
In short: as §1

[11] = tested on: kochia; test: Test C postemergence; format: in vivo, Kochia scoparia; settings: for Plant response rating, Kochia: Postemergence
In short: as §2

[12] = tested on: barnyardgrass; test: Test A preemergence; format: in vivo, Echinochloa crus-galli
In short: as §1

[13] = tested on: giant foxtail; test: Test C postemergence; format: in vivo, Setaria faberii; settings: for Plant response rating, Foxtail, Giant: Postemergence
In short: as §2

[14] = tested on: galium; test: Test C postemergence; format: in vivo, Galium aparine; settings: for Plant response rating, Galium: Postemergence
In short: as §2

[15] = 1000 g ai/ha, 0 to 100 scale, 0 no effect, 100 complete control
[16] = 16 g ai/ha, postemergence, visual rating, scale 0 to 100 (0 no effect, 100 complete control), 13 to 15 days
[17] = 31 g ai/ha, scale 0 to 100 (0 no effect, 100 complete control), 13 to 15 days
[18] = 62 g ai/ha, scale 0 to 100 (0 no effect, 100 complete control)
[19] = 125 g ai/ha, 0 to 100 scale where 0 is no effect and 100 is complete control
[20] = 500 g ai/ha, 0 to 100 scale where 0 is no effect and 100 is complete control
[21] = 500 g ai/ha, 0 to 100 scale, 0 no effect, 100 complete control
[22] = 4 g ai/ha, postemergence, 0 is no effect, 100 is complete control
[23] = 8 g ai/ha, postemergence, 0 is no effect, 100 is complete control
[24] = 16 g ai/ha, postemergence, 0 is no effect, 100 is complete control

Clc1cnc(Oc2cccc(Br)c2-n2cc(Br)cn2)nc1 [Compound 65]
Plant response rating, Morningglory [1, 15]: 100
Chickweed plant response rating [2, 16]: 60
Plant response rating (0 to 100), Chickweed ([2]; 125 g ai/ha, postemergence): 98
Plant response rating, Chickweed [2, 17]: 50
Plant response rating, Chickweed [2, 18]: 70
Velvetleaf plant response rating ([3]; 1000 g ai/ha): 100
Johnsongrass plant response rating [4, 16]: 5
Plant response rating (0 to 100), Johnsongrass ([4]; 125 g ai/ha, postemergence): 5
Plant response rating, Johnsongrass [4, 17]: 5
Plant response rating, Johnsongrass [4, 18]: 5
Plant response rating, Pigweed [5, 15]: 100
Plant response rating, Corn [6, 15]: 70
Corn plant response rating [7, 16]: 5
Plant response rating (0 to 100), Corn ([7]; 125 g ai/ha, postemergence): 10
Plant response rating, Corn [7, 17]: 10
Plant response rating, Corn [7, 18]: 10
Plant response rating, Foxtail, Giant [8, 15]: 100
Plant response rating, Crabgrass, Large [9, 15]: 100
Pigweed plant response rating ([10]; 1000 g ai/ha): 100
Kochia plant response rating [11, 16]: 90
Plant response rating (0 to 100), Kochia ([11]; 125 g ai/ha, postemergence): 98
Plant response rating, Kochia [11, 17]: 90
Plant response rating, Kochia [11, 18]: 98
Plant response rating, Barnyardgrass [12, 15]: 100
Foxtail, Giant plant response rating [13, 16]: 5
Plant response rating (0 to 100), Foxtail, Giant ([13]; 125 g ai/ha, postemergence): 10
Plant response rating, Foxtail, Giant [13, 17]: 10
Plant response rating, Foxtail, Giant [13, 18]: 10
Galium plant response rating [14, 16]: 100
Plant response rating (0 to 100), Galium ([14]; 125 g ai/ha, postemergence): 98
Plant response rating, Galium [14, 17]: 50
Plant response rating, Galium [14, 18]: 85

N#Cc1cccc(Oc2ncc(Cl)cn2)c1-n1cnc(Br)c1 [Compound 74]
Plant response rating, Morningglory [1, 19]: 80
Plant response rating, Morningglory [1, 20]: 100
Plant response rating (0 to 100), Chickweed ([2]; 125 g ai/ha, postemergence): 50
Plant response rating (0 to 100), Chickweed ([2]; 250 g ai/ha, postemergence): 50
Plant response rating, Chickweed [2, 17]: 25
Plant response rating, Chickweed [2, 18]: 30
Plant response rating, Velvetleaf [3, 19]: 70
Velvetleaf plant response rating ([3]; 500 g ai/ha): 100
Plant response rating (0 to 100), Johnsongrass ([4]; 125 g ai/ha, postemergence): 25
Plant response rating (0 to 100), Johnsongrass ([4]; 250 g ai/ha, postemergence): 25
Plant response rating, Johnsongrass [4, 18]: 0
Plant response rating, Pigweed [5, 19]: 100
Plant response rating, Pigweed [5, 20]: 100
Plant response rating, Corn [6, 19]: 30
Plant response rating, Corn [6, 21]: 70
Plant response rating (0 to 100), Corn ([7]; 125 g ai/ha, postemergence): 15
Plant response rating (0 to 100), Corn ([7]; 250 g ai/ha, postemergence): 20
Plant response rating, Corn [7, 17]: 10
Plant response rating, Corn [7, 18]: 10
Plant response rating, Foxtail, Giant [8, 19]: 80
Plant response rating, Foxtail, Giant [8, 20]: 90
Plant response rating, Crabgrass, Large [9, 19]: 70
Plant response rating, Crabgrass, Large [9, 21]: 90
Plant response rating, Pigweed [10, 19]: 100
Pigweed plant response rating ([10]; 500 g ai/ha): 100
Plant response rating (0 to 100), Kochia ([11]; 125 g ai/ha, postemergence): 90
Plant response rating (0 to 100), Kochia ([11]; 250 g ai/ha, postemergence): 90
Plant response rating, Kochia [11, 17]: 80
Plant response rating, Kochia [11, 18]: 90
Plant response rating, Barnyardgrass [12, 19]: 70
Barnyardgrass plant response rating ([12]; 500 g ai/ha, 0 to 100 scale, 0 no effect, 100 complete control, approx. 10 days): 100
Plant response rating (0 to 100), Foxtail, Giant ([13]; 125 g ai/ha, postemergence): 10
Plant response rating (0 to 100), Foxtail, Giant ([13]; 250 g ai/ha, postemergence): 20
Plant response rating, Foxtail, Giant [13, 17]: 5
Plant response rating, Foxtail, Giant [13, 18]: 5
Plant response rating (0 to 100), Galium ([14]; 125 g ai/ha, postemergence): 65
Plant response rating (0 to 100), Galium ([14]; 250 g ai/ha, postemergence): 65
Plant response rating, Galium [14, 17]: 40
Plant response rating, Galium [14, 18]: 55

CC(=NO)c1cn(-c2c(Br)cccc2Oc2ncc(Cl)cn2)nn1 [Compound 115]
Plant response rating, Morningglory [1, 15]: 100
Plant response rating (0 to 100), Chickweed [2, 22]: 0
Plant response rating (0 to 100), Chickweed [2, 23]: 5
Plant response rating (0 to 100), Chickweed [2, 24]: 5
Velvetleaf plant response rating ([3]; 1000 g ai/ha): 100
Plant response rating (0 to 100), Johnsongrass [4, 23]: 5
Plant response rating (0 to 100), Johnsongrass [4, 24]: 5
Plant response rating, Pigweed [5, 15]: 100
Plant response rating, Corn [6, 15]: 90
Plant response rating (0 to 100), Corn [7, 22]: 5
Plant response rating (0 to 100), Corn [7, 23]: 10
Plant response rating (0 to 100), Corn [7, 24]: 5
Plant response rating, Foxtail, Giant [8, 15]: 90
Plant response rating, Crabgrass, Large [9, 15]: 90
Pigweed plant response rating ([10]; 1000 g ai/ha): 100
Plant response rating (0 to 100), Kochia [11, 23]: 0
Plant response rating (0 to 100), Kochia [11, 24]: 0
Plant response rating, Barnyardgrass [12, 15]: 100
Plant response rating (0 to 100), Foxtail, Giant [13, 23]: 5
Plant response rating (0 to 100), Foxtail, Giant [13, 24]: 5
Plant response rating (0 to 100), Galium [14, 23]: 5
Plant response rating (0 to 100), Galium [14, 24]: 40
